Assay results as given in patent publication US20030008922A1, “Multiple drug resistance reversal agent” (priority 2002, published 2003).

Tests used:
Pgp [1] = target: T1, Pgp (Homo sapiens, UniProt P08183); test: Pgp ATPase activity (ATP-hydrolysis); assay type: biochemical; conditions: values >1 represent stimulation, values <1 represent inhibition
Description: (§1) Pgp ATPase stimulation activity was determined along with displacement of the prazosin analog, iodoarylazidoprazosin (^125IAAP). Ambudkar, S. V. Methods Enzymol 1998, 292: 504-514; Dey, S. et al. Methods Enzymol. 1998, 292: 318.
(§2) The effect of the homodimers of the present invention on ATPase activity and IAAP binding to Pgp are very potent. ATPase stimulation reaches a maximum at low concentration (1 μM) and steadily drops off as the concentration is increased (not shown). In contrast with the other homodimers, the X=5 compound slowly achieves maximum stimulation up to 50 μM and this level is maintained as the concentration increases. The other dimers are similar to the monomeric compounds where maximum stimulation is achieved and rapidly drops off as concentration increases. More surprising are the Pgp displacement of photoaffinity labeled substrate analog by the heterodimers. For example, with the heterodimer where X=12 is shown to bind tightly at 1.7 μM.

Pgp [2] = target: T1, Pgp; test: Inhibition of 125IAAP binding to Pgp (photoaffinity substrate displacement)
Description: as §1, §2

T1 sequence (P08183 whole entry): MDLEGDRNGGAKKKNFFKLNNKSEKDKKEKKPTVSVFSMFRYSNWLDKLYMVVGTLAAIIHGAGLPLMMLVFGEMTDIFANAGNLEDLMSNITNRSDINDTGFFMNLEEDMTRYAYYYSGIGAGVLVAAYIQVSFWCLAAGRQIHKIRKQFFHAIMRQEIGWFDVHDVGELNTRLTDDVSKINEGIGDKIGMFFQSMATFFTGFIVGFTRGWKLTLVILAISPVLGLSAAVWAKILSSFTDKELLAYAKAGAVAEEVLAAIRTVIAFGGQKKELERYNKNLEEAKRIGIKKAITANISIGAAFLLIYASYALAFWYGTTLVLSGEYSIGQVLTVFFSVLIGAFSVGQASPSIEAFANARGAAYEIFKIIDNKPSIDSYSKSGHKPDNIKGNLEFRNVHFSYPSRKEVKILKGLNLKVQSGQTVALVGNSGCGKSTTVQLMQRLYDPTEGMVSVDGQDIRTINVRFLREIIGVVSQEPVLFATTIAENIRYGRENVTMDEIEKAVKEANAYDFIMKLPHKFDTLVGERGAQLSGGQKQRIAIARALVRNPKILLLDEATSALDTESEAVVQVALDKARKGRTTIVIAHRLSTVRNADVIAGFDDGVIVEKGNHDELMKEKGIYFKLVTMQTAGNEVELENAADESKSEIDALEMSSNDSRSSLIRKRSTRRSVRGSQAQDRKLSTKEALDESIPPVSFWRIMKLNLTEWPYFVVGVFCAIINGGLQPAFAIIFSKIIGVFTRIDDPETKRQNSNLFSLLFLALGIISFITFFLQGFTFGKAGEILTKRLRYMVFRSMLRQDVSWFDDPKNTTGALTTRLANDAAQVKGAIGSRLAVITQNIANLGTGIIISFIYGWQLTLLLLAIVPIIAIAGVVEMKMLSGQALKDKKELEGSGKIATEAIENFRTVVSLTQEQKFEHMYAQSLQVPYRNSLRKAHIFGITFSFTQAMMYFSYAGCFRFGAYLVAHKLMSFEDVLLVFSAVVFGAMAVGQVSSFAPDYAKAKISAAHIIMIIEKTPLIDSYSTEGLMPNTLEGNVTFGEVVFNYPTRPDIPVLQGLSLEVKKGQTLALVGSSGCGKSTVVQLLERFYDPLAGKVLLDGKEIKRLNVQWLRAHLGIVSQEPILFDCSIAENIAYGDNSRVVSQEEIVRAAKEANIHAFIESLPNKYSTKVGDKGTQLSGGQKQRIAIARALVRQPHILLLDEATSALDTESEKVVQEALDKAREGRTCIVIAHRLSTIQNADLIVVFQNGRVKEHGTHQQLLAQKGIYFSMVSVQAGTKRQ

## CC(=CCCC#CC=CC(C)C(O)C(C)=CCCc1ccc2ccccc2c1)C(=O)NCCOCCOCCOCCOCCOCCO (centres unmarked) [compound 16]
Pgp [1]
  ATPase activity: 0.34 fraction of control
Pgp [2]
  Ki: 7.6 µM
